The values that follow come from ChEMBL document CHEMBL1201862, “PubChem BioAssay data set” (2004).

Some test systems named below: CAKI-1; COLO 205; EKVX; HCT-116; HCT-15; HL-60; HOP-92; MDA-MB-435; MOLT-4; NCI-H226; NCI-H460; OVCAR-5; PC-3; SF-268; SK-OV-3; SN12C; SNB-75; SR; UACC-257; UO-31.
Assay in all cases: NCI tumour cell line growth inhibition, 48 h

Molecules are shown by their SMILES.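 Interpolation was linear, between the two tested concentrations surrounding the appropriate level; five concentrations were tested over 48 hours in 96-well plates. GI50 = concentration required for 50% inhibition of growth.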 Active and inactive are the calls of the source. No stated cut-off is given here; in the data, active = GI50 up to about 1.1 µM and inactive = higher.

`O=C1C(Cl)=C(N2C(=O)CCCC2=O)C(=O)c2ccccc21`: the GI50 is 14 µM (inactive) in the assay on CAKI-1; 6.37 µM (inactive) in the assay on COLO 205; 16.3 µM (inactive) with EKVX; 16.8 µM (inactive) in the assay on HCT-116; 11.6 µM with HCT-15; 1.7 µM (inactive) in the assay with HL-60. Moreover, the GI50 in the assay with HOP-92 is 3.46 µM (inactive); in the assay on MDA-MB-435, 21.8 µM (inactive); in the assay on MOLT-4 it was 17.9 µM (inactive); in the assay on NCI-H226 it was 59.4 µM (inactive); in the assay with NCI-H460 it was 14.6 µM (inactive); in the assay with OVCAR-5 it was 18 µM (inactive). Besides, the GI50 in the assay with PC-3 was 19.6 µM (inactive); with SF-268, 23.9 µM (inactive); in the assay on SK-OV-3, > 100 µM (inactive); in the assay on SN12C, 21.2 µM (inactive); in the assay with SNB-75, 16.4 µM (inactive); with SR it was 21.5 µM (inactive). Further, the GI50 with UACC-257 is 19.1 µM (inactive); in the assay with UO-31 it was 11 µM (inactive).
Consider `NCCSc1nc2ccccc2s1`, for which the GI50 in the assay with CAKI-1 was 38.5 µM (inactive); in the assay on COLO 205 it was > 100 µM (inactive); with EKVX, 34.4 µM (inactive); in the assay on HCT-116 it was 33.7 µM (inactive); in the assay with HCT-15, 42.9 µM; in the assay on HL-60, 73.5 µM (inactive). Moreover, the GI50 in the assay with HOP-92 is 25.5 µM (inactive); with MDA-MB-435, 23 µM (inactive); with MOLT-4, 34.9 µM (inactive); in the assay with NCI-H226, 36.6 µM (inactive); in the assay with NCI-H460, 36.1 µM (inactive); in the assay with OVCAR-5 it was 38.3 µM (inactive). The GI50 was 44 µM (inactive) with PC-3; 32.5 µM (inactive) with SF-268; 32.1 µM (inactive) in the assay with SK-OV-3; 38.7 µM (inactive) in the assay on SN12C; 22.8 µM (inactive) in the assay with SNB-75; 25.9 µM (inactive) in the assay with SR. Also, the GI50 in the assay on UACC-257 is 47 µM (inactive); with UO-31, 43.8 µM (inactive).
With `C#C[C@]1(O)CC[C@H]2[C@@H]3CCC4=C/C(=N\OCCN(CC)CC)CC[C@]4(C)[C@H]3CC[C@@]21C`, the GI50 in the assay on CAKI-1 was 7.93 µM (inactive); in the assay on COLO 205, 3.02 µM (inactive); in the assay with EKVX, 6.87 µM (inactive); in the assay with HCT-116, 3.44 µM (inactive); with HCT-15, 5.6 µM; with HL-60 it was 0.586 µM (active). Also, the GI50 is 16.5 µM (inactive) in the assay with HOP-92; 3.27 µM (inactive) in the assay on MDA-MB-435; 0.122 µM (active) in the assay on MOLT-4; 11.9 µM (inactive) in the assay on NCI-H226; 5.08 µM (inactive) in the assay on NCI-H460; 12.9 µM (inactive) in the assay with OVCAR-5. Besides, the GI50 with PC-3 is 3.18 µM (inactive); in the assay with SF-268, 2.92 µM (inactive); in the assay on SK-OV-3 it was 9.4 µM (inactive); with SN12C it was 9.12 µM (inactive); in the assay with SNB-75, 3.05 µM (inactive); in the assay with SR it was 2.94 µM (inactive). In addition, the results for the GI50 in the assay with UACC-257 and in the assay on UO-31 were 4.31 µM (inactive) and 3.72 µM (inactive), respectively.
Regarding `CC(C)(Cl)C(Br)CC/C(CBr)=C(/Cl)CCl.CC(C)(Cl)C(Br)CC/C(CBr)=C(\Cl)CCl` (stereo not given), the GI50 is 2.41 µM (inactive) in the assay with CAKI-1; 0.607 µM (active) in the assay with COLO 205; 6.17 µM (inactive) with EKVX; 1.82 µM (inactive) with HCT-116; 2.29 µM in the assay with HCT-15; 0.94 µM (active) in the assay on HL-60. Moreover, the GI50 with HOP-92 was 1.9 µM (inactive); in the assay with MDA-MB-435 it was 1.79 µM (inactive); with MOLT-4 it was 0.417 µM (active); in the assay on NCI-H226, 0.975 µM (active); with NCI-H460 it was 6.38 µM (inactive); with OVCAR-5, 5.13 µM (inactive). For the same compound, the GI50 in the assay on PC-3 is 2.33 µM (inactive); with SF-268 it was 2.25 µM (inactive); with SK-OV-3, 3.36 µM (inactive); in the assay on SN12C, 0.497 µM (active); in the assay on SNB-75 it was 2.74 µM (inactive); with SR it was 0.331 µM (active). Further, the GI50 was 2.13 µM (inactive) in the assay with UACC-257 and 1.95 µM (inactive) with UO-31.
Regarding `O=C(/C=C1\C[C@H]2C=Nc3ccccc3C(=O)N2C1)NCCCCCNC(=O)/C=C1\C[C@H]2C=Nc3ccccc3C(=O)N2C1`, the GI50 in the assay on CAKI-1 is 2.6 µM (inactive); in the assay on COLO 205 it was 0.532 µM (active); in the assay on EKVX it was 18 µM (inactive); with HCT-116 it was 6.14 µM (inactive); with HCT-15, 3.44 µM; with HL-60 it was 2.4 µM (inactive). For the same compound, the GI50 was 4.63 µM (inactive) in the assay on HOP-92; 4.7 µM (inactive) in the assay with MDA-MB-435; 1.7 µM (inactive) in the assay with MOLT-4; > 51.5 µM (inactive) in the assay with NCI-H226; 18.3 µM (inactive) in the assay with NCI-H460; 18.8 µM (inactive) with OVCAR-5. In addition, the GI50 in the assay with PC-3 is 13.8 µM (inactive); with SF-268, 6.49 µM (inactive); in the assay with SK-OV-3 it was 16.2 µM (inactive); in the assay on SN12C it was 4.74 µM (inactive); with SNB-75, 13.6 µM (inactive); in the assay with SR, 1.6 µM (inactive). The GI50 with UACC-257 is 4.36 µM (inactive); in the assay with UO-31, 1.94 µM (inactive).
Regarding `CC1(c2cccc(Cl)c2)CC(c2cccc(Cl)c2)=C(C#N)C(=C(C#N)C#N)N1` (stereo not given), the GI50 in the assay on CAKI-1 is 16.5 µM (inactive); with COLO 205, 13.2 µM (inactive); in the assay on EKVX, 22.1 µM (inactive); with HCT-116 it was 16.6 µM (inactive); in the assay with HCT-15 it was 16 µM; with HL-60 it was 18.4 µM (inactive). The GI50 with HOP-92 was 6.19 µM (inactive); in the assay with MDA-MB-435 it was 17 µM (inactive); in the assay with MOLT-4, 12.5 µM (inactive); in the assay with NCI-H226, 18.7 µM (inactive); in the assay on NCI-H460 it was 27.6 µM (inactive); in the assay on OVCAR-5, 24.2 µM (inactive). In addition, the GI50 with PC-3 is 17.6 µM (inactive); in the assay on SF-268 it was 4.62 µM (inactive); with SK-OV-3 it was 18.7 µM (inactive); in the assay with SN12C it was 19.4 µM (inactive); in the assay on SNB-75, 19.1 µM (inactive); in the assay with SR, 14.3 µM (inactive). The GI50 is 20.1 µM (inactive) in the assay with UACC-257 and 15.7 µM (inactive) with UO-31.
Consider `CC1=C[P+](c2ccccc2)(c2ccccc2)c2ccccc2O1`, for which the GI50 in the assay with CAKI-1 is 23.5 µM (inactive); in the assay on COLO 205, 1.29 µM (inactive); with EKVX it was 16.7 µM (inactive); in the assay with HCT-116 it was 3.71 µM (inactive); in the assay with HCT-15, greater than 100 µM; in the assay on HL-60, 2.06 µM (inactive). Besides, the GI50 with HOP-92 was 3.73 µM (inactive); in the assay with MDA-MB-435, 2.47 µM (inactive); in the assay with MOLT-4, 2.15 µM (inactive); in the assay with NCI-H226 it was 15.2 µM (inactive); in the assay with NCI-H460 it was 20.5 µM (inactive); in the assay with OVCAR-5, 17.4 µM (inactive). The GI50 was 3.32 µM (inactive) in the assay with PC-3; 16.6 µM (inactive) with SF-268; 25 µM (inactive) with SK-OV-3; 1.32 µM (inactive) with SN12C; 11.4 µM (inactive) in the assay on SNB-75; 1.56 µM (inactive) in the assay with SR. The GI50 in the assay with UACC-257 was 2.79 µM (inactive); in the assay with UO-31 it was > 100 µM (inactive).
In the case of `COn1cc(CO)c2ccccc21`, the GI50 was 3.37 µM (inactive) in the assay on CAKI-1; 51.4 µM (inactive) with COLO 205; > 83.2 µM (inactive) in the assay on EKVX; 45.3 µM (inactive) in the assay with HCT-116; greater than 88.7 µM in the assay with HCT-15; 31.3 µM (inactive) in the assay with HL-60. For the same compound, the GI50 is > 61.2 µM (inactive) in the assay with HOP-92; > 100 µM (inactive) with MDA-MB-435; 28.8 µM (inactive) in the assay on MOLT-4; 1.57 µM (inactive) with NCI-H226; > 100 µM (inactive) in the assay on NCI-H460; 7.96 µM (inactive) in the assay with OVCAR-5. For the same compound, the GI50 was > 75.2 µM (inactive) in the assay with PC-3; > 88.7 µM (inactive) in the assay with SF-268; > 100 µM (inactive) with SK-OV-3; > 84.7 µM (inactive) with SN12C; > 100 µM (inactive) in the assay with SNB-75; 31.8 µM (inactive) with SR. Besides, the GI50 in the assay with UACC-257 was 25.2 µM (inactive); in the assay on UO-31, 33.1 µM (inactive).
`COc1ccc(NC(C)=O)c(C(=O)CCNC(C)=O)c1`: the GI50 is > 100 µM (inactive) in the assay on CAKI-1; > 100 µM (inactive) in the assay with COLO 205; > 100 µM (inactive) with EKVX; > 100 µM (inactive) in the assay on HCT-116; greater than 100 µM with HCT-15; > 100 µM (inactive) in the assay with HL-60. The GI50 in the assay on HOP-92, in the assay on MDA-MB-435, in the assay on MOLT-4, with NCI-H226, in the assay with NCI-H460 and in the assay on OVCAR-5 was > 100 µM (inactive) throughout. Moreover, the GI50 in the assay on PC-3, in the assay with SF-268, in the assay on SK-OV-3, with SN12C, in the assay with SNB-75 and with SR was > 100 µM (inactive) in each case. The GI50 in the assay on UACC-257 and in the assay with UO-31 was > 100 µM (inactive) throughout.
As to `O=CNNC(=O)CSc1nc2ccc(I)cc2c(=O)n1Cc1ccccc1`, the GI50 was 22.2 µM (inactive) in the assay on CAKI-1; 17.9 µM (inactive) in the assay with COLO 205; 23.9 µM (inactive) in the assay on EKVX; 20.4 µM (inactive) with HCT-116; 40.7 µM in the assay with HCT-15; 47.5 µM (inactive) in the assay with HL-60. Moreover, the GI50 was 25.4 µM (inactive) in the assay with HOP-92; 40.5 µM (inactive) in the assay with MDA-MB-435; 0.361 µM (active) in the assay with MOLT-4; 49.3 µM (inactive) with NCI-H226; 20 µM (inactive) in the assay on NCI-H460; 61.8 µM (inactive) in the assay with OVCAR-5. Besides, the GI50 in the assay on PC-3 was 39 µM (inactive); in the assay with SF-268, 35.4 µM (inactive); in the assay with SK-OV-3, 49.7 µM (inactive); with SN12C, 28.4 µM (inactive); in the assay on SNB-75 it was 45 µM (inactive); with SR it was 32.2 µM (inactive). Moreover, the results for the GI50 with UACC-257 and in the assay with UO-31 were 22.9 µM (inactive) and 1.72 µM (inactive), respectively.
